Experimental data: patent US11078161B2, “Rock-inhibiting compound and uses thereof” (HITGEN INC., priority 2017, dated 2021)

Key:
ROCK2 = ROCK2 (Homo sapiens, UniProt O75116); assay: Measurement of inhibitory activity against ROCK2 (ADP-Glo, S6K substrate); assay type: biochemical; settings: read-out: ROCK2 (IC50 class)
Text: ROCK2 was capable of phosphorylating a substrate of polypeptide S6K (KRRRLASLR) by converting ATP to ADP. An ADP-Glo™ reagent was adopted to terminate this reaction and consume the remaining ATP. Moreover, a kinase detection reagent was introduced to ensure that ATP was further converted into a luminescent signal by an Ultra-Glo™ luciferase while convening ADP into ATP, allowing the kinase activity to be positively correlated with the intensity of the luminescent signal.
The inhibitory activity against ROCK2 was determined as follows.
(1) A detection buffer containing 40 mM Tris (pH 7.5), 20 mM MgCl2, 0.1% BSA(w/v) and 50 μM DTT was prepared.
(2) 12 μL of 2.5×0.1 μg/mL ROCK2 solution was added to a 96-well PCR plate.
(3) The 96-well PCR plate was added with 6 μL of a 6× compound solution and pre-incubated at 25° C. for 10 min.
(4) Then the 96-well PCR plate was further added with 12 μL of a mixed solution of a 2.5×37.5 μg/mL S6K substrate solution and a 12.5 μM ATP solution, and incubated at 30° C. for 60 min.
(5) 25 μL of the reaction mixture was transferred to a new 96-well PCR plate, mixed with 25 μL of the ADP-Glo™ reagent uniformly and incubated at 25° C. for 40 min to terminate the reaction.
(6) After the reaction was terminated, 40 μL of the reaction mixture was transferred to another 96-well PCR plate, mixed with 40 μL of the kinase detection reagent uniformly and incubated at 25° C. for 40 min.
(7) The luminescence signal was recorded for the calculation of the inhibitory rate.
The inhibitory activity of the above-prepared compounds against the ROCK2 was measured according to the above process, and the results were shown in Table 1, in which the compounds were ranked according to the IC50 value. Specifically, “+” indicated an IC50 value greater than 500 nM; “++” indicated an IC50 value less than 500 nM and greater than 100 nM; and “+++” indicated an IC50 value less than 100 nM.

[1] = test system: phosphorylation of the myosin light chain (T18/S19) of smooth muscle cells A7r5; assay: Detection of myosin light chain phosphorylation by In-Cell Western Blotting; assay type: cell-based; settings: rat smooth muscle cells A7r5, 1 h incubation in serum-free medium; read-out: A7r5 (IC50 class, inhibition of myosin light chain phosphorylation)
Method: ROCK2 was capable of altering the cytoskeleton by phosphorylating two amino acid sites (T18 and S19) on the myosin light chain. Smooth muscle cells A7r5 of rats were selected, inoculated into a 96 well black plate with a transparent bottom and cultured with DMEM containing 10% FBS. After cultured overnight, the cells were treated by serum starvation for 4 h and then incubated with respective compounds in serum-free medium for 1 h. The phosphorylation level of the myosin light chain was detected by In-Cell Western Blotting using a phspho-MLC-T18/S19-specific antibody and a secondary detection antibody. The untreated cells were used as positive control; the cells without undergoing primary antibody incubation were used as negative control; and total intracellular protein was used as an internal reference. The results were fitted by a non-linear regression curve with varying slope using GraphPad Prism 5.01 software to determine an IC50 value.
The detection of the inhibitory activity of the above-prepared compounds against the phosphorylation of the myosin light chain of smooth muscle cells A7r5 was performed according to the above process. The results were shown in Table 2, where the compounds were ranked according to the IC50 value.

[2] = test system: New Zealand rabbits with normal intraocular pressure; assay: Animal experiment, normal intraocular pressure model; assay type: in vivo; settings: normal IOP rabbits, 50 μL to the right eye, IOP at 0-10 h
Method: 24 male New Zealand rabbits were averagely divided into 4 groups, and were randomly assigned to respective groups using a computer randomized algorithm involving weight. From […] before the experiment, all rabbits were required to be trained to adapt to the operation of intraocular pressure (IOP) measurement, and the training was performed 3 times a day with an interval of about 3 h. The intraocular pressure was measured using a TonoVet tonometer, specifically, individual animals were fixed and the eye to be tested was placed at a position perpendicular to the TonoVet tonometer. The IOP should be measured at least 3 times in each operation until the reading became stable. The results from the last three stable measurements (±3 mmHg) were recorded and averaged to be used as the final IOP value. Respective compounds were weighed and dissolved with normal saline to the desired concentration. At the beginning of the experiment, individual compounds of the invention, reference compound K115 or negative control solvent (50 μL) were administered to the right eye of each animal, and the left eye of each animal was treated by normal saline. The IOP was measured at time points Pre (0 h), 1 h, 2 h, 4 h, 6 h, 8 h and 10 h after the administration of drugs, and the data obtained at respective time points was analyzed by student-t test. The curve of IOP over time was analyzed using the ANOVA test, where a P value of less than 0.05 will be considered to be of statistical significance and the data was expressed by mean±standard deviation.

[3] = test system: New Zealand rabbits with high intraocular pressure; assay: Animal experiment, high intraocular pressure monocular model; assay type: in vivo; settings: high IOP rabbits, 50 μL per eye three times a day (0, 3rd, 6th h), IOP at 0-8 h
Method: 10 male New Zealand rabbits were averagely divided into 2 groups and were randomly assigned to respective groups using a computer randomized algorithm involving weight. From 3 days to 1 day before the experiment, all rabbits were required to be trained to adapt to the operation of intraocular pressure (IOP) measurement, and the training was performed 3 times a day with an interval of about 3 h. The intraocular pressure was measured using a TonoVet tonometer, specifically, individual animals were fixed and the eye to be tested was placed at a position perpendicular to the TonoVet tonometer. The IOP should be measured at least 3 times in each operation until the reading became stable. The results from the last three stable measurements (±3 mmHg) were recorded and averaged to be used as the final IOP value. Respective compounds were weighed and dissolved with normal saline to the desired concentration. Before the induction of high intraocular pressure, the intraocular pressure values of both eyes were measured and used as the basic intraocular pressure value. […] The IOP was measured respectively 0, 1, 2, 3, 4, 6 and 8 h after the injection. The results obtained at individual time points were analyzed by student-t test, and the variation curve of IOP over time was analyzed using ANOVA test. […]

hypertensive model rats = settings: cited from earlier work

Chain of ROCK2 (O75116 whole entry): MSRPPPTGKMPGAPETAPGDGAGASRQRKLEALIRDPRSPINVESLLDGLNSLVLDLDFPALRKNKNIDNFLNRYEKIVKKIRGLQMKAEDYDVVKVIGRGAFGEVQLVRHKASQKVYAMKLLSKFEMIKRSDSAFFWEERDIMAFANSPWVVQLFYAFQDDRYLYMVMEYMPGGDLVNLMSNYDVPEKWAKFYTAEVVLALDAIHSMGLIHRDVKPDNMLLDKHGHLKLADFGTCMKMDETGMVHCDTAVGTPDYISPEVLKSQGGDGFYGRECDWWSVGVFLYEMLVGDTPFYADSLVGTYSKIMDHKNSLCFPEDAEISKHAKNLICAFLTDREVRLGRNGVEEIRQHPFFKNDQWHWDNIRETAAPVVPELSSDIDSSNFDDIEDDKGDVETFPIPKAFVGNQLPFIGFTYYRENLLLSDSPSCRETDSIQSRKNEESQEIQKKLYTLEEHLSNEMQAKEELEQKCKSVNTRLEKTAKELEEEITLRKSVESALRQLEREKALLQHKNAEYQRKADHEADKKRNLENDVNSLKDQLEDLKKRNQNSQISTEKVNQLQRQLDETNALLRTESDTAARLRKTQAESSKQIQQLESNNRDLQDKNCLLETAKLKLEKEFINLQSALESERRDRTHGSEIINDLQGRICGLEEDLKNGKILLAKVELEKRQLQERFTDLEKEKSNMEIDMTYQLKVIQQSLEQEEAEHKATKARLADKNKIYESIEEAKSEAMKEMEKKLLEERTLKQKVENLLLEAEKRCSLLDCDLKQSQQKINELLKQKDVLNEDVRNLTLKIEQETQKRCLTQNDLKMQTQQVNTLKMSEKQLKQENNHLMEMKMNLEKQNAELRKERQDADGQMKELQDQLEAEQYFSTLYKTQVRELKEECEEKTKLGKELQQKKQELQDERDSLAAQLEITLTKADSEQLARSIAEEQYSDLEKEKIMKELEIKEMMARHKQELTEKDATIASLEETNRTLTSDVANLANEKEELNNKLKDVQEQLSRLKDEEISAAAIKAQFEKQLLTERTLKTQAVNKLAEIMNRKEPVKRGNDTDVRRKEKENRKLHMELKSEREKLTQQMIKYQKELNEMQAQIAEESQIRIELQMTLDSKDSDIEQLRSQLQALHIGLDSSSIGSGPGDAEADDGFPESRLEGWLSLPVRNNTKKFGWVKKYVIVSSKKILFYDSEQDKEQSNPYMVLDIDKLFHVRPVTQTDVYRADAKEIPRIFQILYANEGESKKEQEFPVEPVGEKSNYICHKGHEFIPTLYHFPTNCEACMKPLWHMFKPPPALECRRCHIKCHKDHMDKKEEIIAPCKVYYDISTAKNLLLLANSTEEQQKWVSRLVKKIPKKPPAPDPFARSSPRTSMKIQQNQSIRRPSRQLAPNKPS

Row | SMILES | IC50 (ROCK2) [nM] | IC50 [1] [nM] | further results
1 | NC[C@@H](NC(=O)c1ccc2cnccc2c1)c1ccccc1 [Compound 1, N—((S)-2-amino-1-phenyl-ethyl)isoquinoline-6-carboxamide] | < 100 | 250 to 1000 | 
2 | NC[C@@H](NC(=O)c1ccc2cnccc2c1)c1cccc(Br)c1 [Compound 2, (S)—N-(2-amino-1-(3-bromophenyl)ethyl)isoquinoline-6-carboxamide] | < 100 | < 250 | 
3 | NC[C@@H](NC(=O)c1ccc2cnccc2c1)c1ccc(CO)cc1 [Compound 3, (S)—N-(2-amino-1-(4-(hydroxymethyl)phenyl)ethyl)isoquinoline-6-formamide] | 100 to 500 |  | 
4 | Cc1ccc(C(=O)OCc2ccc([C@@H](CN)NC(=O)c3ccc4cnccc4c3)cc2)c(C)c1 [Compound 4, (S)-4-(2-amino-1-(isoquinoline-6-formamido)ethyl)benzyl 2,4-dimethylbenzoate] | 100 to 500 | > 1000 | 
5 | CN(C)C[C@@H](NC(=O)c1ccc2cnccc2c1)c1ccccc1 [Compound 5, N-((1S)-2-(dimethylamino)-1-phenyl-ethyl)isoquinoline-6-formamide] | < 100 | 250 to 1000 | acting time compared to K115 [2]: a longer acting time; intraocular pressure-reducing activity compared to K115 [2]: a similar intraocular pressure-reducing activity
6 | NCCC(NC(=O)c1ccc2cnccc2c1)c1cccc(Cl)c1 (stereo not shown) [Compound 6, N-(3-amino-1-(3-chlorophenyl)propyl)isoquinoline-6-carboxamide] | < 100 | < 250 | 
7 | CCOC(=O)c1cc(-c2cccc(C(CCN)NC(=O)c3ccc4cnccc4c3)c2)cs1 (stereo not shown) [Compound 7, ethyl 4-(3-(3-amino-1-(isoquinoline-6-formamide)propyl)phenyl)thiophene-2-carboxylate] | < 100 | 250 to 1000 | 
8 | CN(C)CCC(NC(=O)c1ccc2cnccc2c1)c1ccccc1 (stereo not shown) [Compound 8, N-(3-(dimethylamino)-1-phenyl-propyl)isoquinoline-6-formamide] | < 100 | > 1000 | 
9 | O=C(NC(c1ccccc1)C1CNC1)c1ccc2cnccc2c1 (stereo not shown) [Compound 9, N-(azetidin-3-yl-benzyl)isoquinoline-6-carboxamide] | < 100 | 250 to 1000 | 
10 | CN1CC(C(NC(=O)c2ccc3cnccc3c2)c2ccccc2)C1 (stereo not shown) [Compound 10, N-((1-methylazetidin-3-yl)-benzyl)isoquinoline-6-carboxamide] | < 100 | 250 to 1000 | 
11 | O=C(N[C@H](c1ccccc1)[C@@H]1CCNC1)c1ccc2cnccc2c1 [Compound 11a, N—((S)-phenyl-((R)-pyrrolidin-3-yl)methyl)isoquinoline-6-carboxamide] | < 100 | 250 to 1000 | acting time compared to K115 [2]: a longer acting time; intraocular pressure-reducing activity compared to K115 [2]: a similar intraocular pressure-reducing activity; effect on alleviating high intraocular pressure [3]: a good effect on alleviating high intraocular pressure
12 | O=C(N[C@@H](c1ccccc1)[C@@H]1CCNC1)c1ccc2cnccc2c1 [Compound 11b, N—((R)-phenyl-((R)-pyrrolidin-3-yl)methyl)isoquinoline-6-carboxamide] | < 100 |  | 
13 | CN1CC[C@@H]([C@@H](NC(=O)c2ccc3cnccc3c2)c2ccccc2)C1 [Compound 12, N—((R)—((R)-1-methylpyrrolidin-3-yl)(phenyl)methyl)isoquinoline-6-carboxamide] | < 100 |  | 
14 | CN1CC[C@@H]([C@H](NC(=O)c2ccc3cnccc3c2)c2ccccc2)C1 [Compound 13, N—((S)—((R)-1-methylpyrrolidin-3-yl)(phenyl)methyl)isoquinoline-6-carboxamide] | < 100 | 250 to 1000 | 
15 | O=C(N[C@H](c1ccccc1)[C@H]1CCNC1)c1ccc2cnccc2c1 [Compound 14a, N—((S)-phenyl-((S)-pyrrolidin-3-yl)methyl)isoquinoline-6-carboxamide] | 100 to 500 |  | 
16 | O=C(N[C@@H](c1ccccc1)[C@H]1CCNC1)c1ccc2cnccc2c1 [Compound 14b, N—((R)-phenyl-((S)-pyrrolidin-3-yl)methyl)isoquinoline-6-carboxamide] | < 100 |  | 
17 | COc1cccc([C@@H](CN(C)C)NC(=O)c2ccc3cnccc3c2)c1 [Compound 15, N—((S)-2-(dimethylamino)-1-(3-methoxyphenyl)ethyl)isoquinoline-6-carboxamide] | < 100 | 250 to 1000 | 
18 | CN(C)C[C@@H](NC(=O)c1ccc2cnccc2c1)c1cccc(Cl)c1 [Compound 16, N—((S)-2-(dimethylamino)-1-(3-chlorophenyl)ethyl)isoquinoline-6-carboxamide] |  | 250 to 1000 | 
19 | C[C@@H](N)[C@H]1CC[C@H](C(=O)Nc2ccncc2)CC1 [Compound Y-27632] |  |  | blood pressure of control rats (hypertensive model rats; control rats): fails to show significant effects on the blood pressure; blood pressure of hypertensive model rats (hypertensive model rats; spontaneous, renal and deoxycorticosterone acetate-induced hypertension): significantly lowering the blood pressure
